Source: PubChem BioAssay AID1053199 (The Scripps Research Institute Molecular Screening Center, 2014)
The source made the active and inactive calls.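 Rule for the calls: active = inhibition at or above 50% when tested at 10 µM; inactive = inhibition below 50% at 10 µM.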

Biological target: Methionine--tRNA ligase, mitochondrial (Homo sapiens) (UniProt Q96GW9)
Assay: human mitochondrial MetRS inhibition, late-stage follow-up, selectivity assay for T. brucei MetRS inhibitor project, biochemical, radioactivity, round 3 (AID 1053199)
Conditions: recombinant human mitochondrial MetRS, [3H]Met aminoacylation, stronger effect = higher value

Methionine--tRNA ligase, mitochondrial (Homo sapiens), sequence (Q96GW9 whole entry, looked up): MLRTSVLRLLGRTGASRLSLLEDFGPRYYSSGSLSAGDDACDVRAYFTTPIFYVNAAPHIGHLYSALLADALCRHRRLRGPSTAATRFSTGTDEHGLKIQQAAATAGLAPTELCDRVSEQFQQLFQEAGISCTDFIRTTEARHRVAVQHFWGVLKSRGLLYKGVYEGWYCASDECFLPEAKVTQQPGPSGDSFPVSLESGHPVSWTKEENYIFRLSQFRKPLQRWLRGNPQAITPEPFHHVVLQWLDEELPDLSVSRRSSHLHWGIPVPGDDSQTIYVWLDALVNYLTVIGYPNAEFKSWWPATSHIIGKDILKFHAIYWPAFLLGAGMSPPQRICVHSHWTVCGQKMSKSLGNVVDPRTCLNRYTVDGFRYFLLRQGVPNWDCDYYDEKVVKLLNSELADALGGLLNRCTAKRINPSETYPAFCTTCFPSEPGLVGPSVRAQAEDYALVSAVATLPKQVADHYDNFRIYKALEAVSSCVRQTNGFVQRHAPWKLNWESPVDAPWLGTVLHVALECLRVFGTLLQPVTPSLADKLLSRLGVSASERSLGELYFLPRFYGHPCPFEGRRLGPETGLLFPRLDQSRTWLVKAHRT

Row | inhibition (at 10 µM) | inhibition (inhibition, at 1 µM) | SMILES
1 | -1.74% (inactive) | -4.97% | CCN(CC)C(=O)C(=O)c1cn(CC(=O)Nc2cc(Oc3ccc(OC)cc3)cc(C(F)(F)F)c2)c2ccccc12
2 | -4.45% (inactive) | -5.27% | CCN(CC)C(=O)C(=O)c1cn(CC(=O)Nc2cc(Oc3ccccc3F)cc(C(F)(F)F)c2)c2ccccc12
3 | 7.56% (inactive) | -2.44% | CCN(CC)C(=O)C(=O)c1cn(CC(=O)Nc2cc(Oc3ccc(F)cc3)cc(C(F)(F)F)c2)c2ccccc12
4 | 6.34% (inactive) | -6.59% | CCN(CC)C(=O)C(=O)c1cn(CC(=O)Nc2cc(Oc3ccccc3OC)cc(C(F)(F)F)c2)c2ccccc12

Second part, the compound before the results:

Row | SMILES | inhibition (at 10 µM) | inhibition (inhibition, at 1 µM)
5 | CCN(CC)C(=O)C(=O)c1cn(CCNc2cccc(C(F)(F)F)c2)c2ccccc12 | 0.1% (inactive) | -5.12%
6 | O=C(Cn1cc(C(=O)C(=O)NCc2ccccc2)c2ccccc21)Nc1cc(Oc2ccccc2)cc(C(F)(F)F)c1 | -8.53% (inactive) | -1.57%
7 | CCN(CC)C(=O)C(=O)c1cn(CCNc2cc(Oc3ccccc3)cc(C(F)(F)F)c2)c2ccccc12 | 2.68% (inactive) | -2.31%
8 | O=C(Cc1ccc(Nc2nc3ccc(Br)cc3[nH]2)cc1)NCCc1cccs1 | 0.91% (inactive) | 5.12%
9 | CCN(CC)C(=O)Cc1cn(CC(=O)Nc2cccc(C(F)(F)F)c2)c2ccccc12 | -11.2% (inactive) | -8.45%
10 | Nc1c(Cl)ncnc1Nc1ccc(C(=O)O)cc1 | 6.59% (inactive) | 2.59%
